Assay results published in publication PMC10112232, “Comparison of Toxicities among Different Bumped Kinase Inhibitor Analogs for Treatment of Cryptosporidiosis” (Antimicrobial Agents and Chemotherapy, 2023).
Where two headings read alike, the source gives them in different places.

Tests used:
C. hominis = experiment: Efficacy in neonatal gnotobiotic piglets infected with C. hominis; assay type: in vivo; conditions: 5 mg/kg BID
Protocol: Rectal swabs were processed for oocyst count and DNA measurement. The plot represents mean ± SEM. Wilcoxon matched-pairs signed rank test was conducted using GraphPad Prism 7.03. […] The 5 day doses were given on days 0–4, the 8 day doses were given on days 0–7.
(§1) Methods for synthesis of BKIs ([17], [23]), efficacy against Nluc expressing C. parvum in infected adult IFN-γ KO mice ([6], [9]), in vivo mouse GI tract tissue exposure by LC/MS-MS analysis ([18], [28]), PK analysis of mouse plasma and brain tissue BKI concentrations by LC/MS-MS analysis ([29]), in vivo rat and dog cardiotoxicity screen ([30]), efficacy against IOWA-II strain C. parvum in infected neonatal calves ([13]), efficacy against C. hominis in infected piglets ([12]), in vitro inhibition of C. parvum CDPK1 (CpCDPK1) and human tyrosine kinase SRC (HsSRC) activity ([31]), in vitro inhibition of hERG ([32]), Nluc expressing C. parvum in vitro growth inhibition in infected HCT-8 cells ([6]), in vitro cytotoxicity in CRL-8155 and HepG2 cells ([29]), and mouse locomotor activity box ([33], [34]) have all been previously described. Analytes were measured by LC/MS-MS on an Acquity ultra performance liquid chromatography (UPLC) system in tandem with a Xevo TQ-S mass spectrometer (Waters, Milford, MA, USA).

[1] = target: T1, human tyrosine kinase SRC (HsSRC) (Homo sapiens, UniProt P12931); set-up: method as in PMID 30830766; conditions: read-out: HsSR IC50; cited from earlier work
T1 sequence (P12931 whole entry): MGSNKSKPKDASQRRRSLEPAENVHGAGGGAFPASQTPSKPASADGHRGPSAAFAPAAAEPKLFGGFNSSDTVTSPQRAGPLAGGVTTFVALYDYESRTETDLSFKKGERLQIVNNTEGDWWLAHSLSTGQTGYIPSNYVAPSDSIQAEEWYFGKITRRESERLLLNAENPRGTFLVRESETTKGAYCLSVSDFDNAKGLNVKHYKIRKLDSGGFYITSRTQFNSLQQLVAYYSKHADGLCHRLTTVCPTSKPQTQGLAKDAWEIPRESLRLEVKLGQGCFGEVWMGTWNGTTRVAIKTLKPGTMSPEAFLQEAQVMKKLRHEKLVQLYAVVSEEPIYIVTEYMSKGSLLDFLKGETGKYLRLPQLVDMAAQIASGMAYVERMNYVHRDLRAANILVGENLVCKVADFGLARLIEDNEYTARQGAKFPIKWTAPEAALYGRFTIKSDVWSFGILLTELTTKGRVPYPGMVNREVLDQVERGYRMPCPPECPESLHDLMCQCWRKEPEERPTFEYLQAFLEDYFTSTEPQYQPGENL

[2] = cited from earlier work; for CO / HR / MAP / PR / QRS / QTcV / SVR / dp/dt@50: dog, IV 0.02 mL/kg/min
[3] = system: Nluc expressing C. parvum; experiment: Efficacy in IFN-γ KO mice infected with Nluc expressing C. parvum; assay type: in vivo; conditions: for difference in parasite excretion vs untreated control: n = 3
Protocol: BKI-1841 was also tested at doses of 60, 30, 15, and 5 mg/kg once daily (QD) for 5 days, resulting in a minimum efficacious dose of 30 mg/kg that cleared parasite excretion to background levels by day 13 postinfection (Fig. 4).
FIG 4 Efficacy of BKI-1841 in interferon-γ knockout mice infected with nanoluciferase expressing C. parvum. Treatments were separated into two separate experiments for BKI-1841. Untreated control groups for each experiment are grouped with their associated treatment in the figure keys. Dotted line denotes the limit of detection. Treatments were dosed on days 6 through 10 postinfection. […] QD = once daily.
as §1

[4] = target: T1, human tyrosine kinase SRC (HsSRC); experiment: In vitro inhibition of HsSRC; assay type: biochemical; conditions: read-out: HsSR IC50
From the text: as §1

[5] = Cardiovascular testing in anesthetized rats; assay type: in vivo, rat; conditions: for HR / MAP / dP/dt@50: rat
From the text: as §1

Aqueous solubility = assay type: physicochemical
From the text: TABLE 1 In vitro properties of bumped kinase inhibitors^a | column: Solubility at pH 2 (μM); Solubility at pH 6.5 (μM)

Q: With `CCOc1ccc2cc(-c3nn(C(C)(C)CCO)c(N)c3C(N)=O)ccc2c1` [BKI-1770] as the compound, how does the “oocyst counts in feces vs controls” value (C. hominis; 5-day treatment (P = 0.001)) read?
A: significantly reduced

Q: And the “oocyst counts in feces vs controls” value (C. hominis; 8-day treatment (P = 0.0168))?
A: significantly reduced

Q: What about the diarrhea scores (C. hominis; both 5- and 8-day treatment groups) of the same compound?
A: significantly reduced

Q: And the IC50 [1]?
A: > 10 µM

Q: And the “effects on MAP, HR, contractility, SVR, CO, QTcV, QRS, PR vs control” value ([2]; anesthetized dogs, 0.02 mL/kg/min, 150 min)?
A: No appreciable effects

Q: And the CO ([2]; 15 min)?
A: 0%

Q: What about the HR ([2]; 15 min) of the same compound?
A: 4%

Q: What about the MAP ([2]; 15 min) of the same compound?
A: 2%

Q: And the PR ([2]; 15 min)?
A: -3 ms

Q: And the QRS ([2]; 15 min)?
A: 0 ms

Q: What about the QTcV ([2]; 15 min) of the same compound?
A: 4 ms

Q: What about the SVR ([2]; 15 min) of the same compound?
A: 2%

Q: And the “dp/dt@50” value ([2]; 15 min)?
A: 1%

Q: And the CO ([2]; 30 min)?
A: 4%

Q: And the HR ([2]; 30 min)?
A: 5%

Q: And the MAP ([2]; 30 min)?
A: 2%

Q: What about the PR ([2]; 30 min) of the same compound?
A: 0 ms

Q: What about the QRS ([2]; 30 min) of the same compound?
A: 0 ms

Q: And the QTcV ([2]; 30 min)?
A: 1 ms

Q: What about the SVR ([2]; 30 min) of the same compound?
A: -1%

Q: What about the “dp/dt@50” value ([2]; 30 min) of the same compound?
A: 0%

Q: What about the CO ([2]; 45 min) of the same compound?
A: 3%

Q: What about the HR ([2]; 45 min) of the same compound?
A: 8%

Q: What about the MAP ([2]; 45 min) of the same compound?
A: 2%

Q: What about the PR ([2]; 45 min) of the same compound?
A: -1 ms

Q: And the QRS ([2]; 45 min)?
A: -1 ms

Q: What about the QTcV ([2]; 45 min) of the same compound?
A: 1 ms

Q: And the SVR ([2]; 45 min)?
A: -2%

Q: What about the “dp/dt@50” value ([2]; 45 min) of the same compound?
A: 1%

Q: And the CO ([2]; 60 min)?
A: -1%

Q: And the HR ([2]; 60 min)?
A: 9%

Q: And the MAP ([2]; 60 min)?
A: 2%

Q: What about the PR ([2]; 60 min) of the same compound?
A: -1 ms

Q: And the QRS ([2]; 60 min)?
A: -2 ms

Q: And the QTcV ([2]; 60 min)?
A: -1 ms

Q: What about the SVR ([2]; 60 min) of the same compound?
A: 2%

Q: What about the “dp/dt@50” value ([2]; 60 min) of the same compound?
A: -1%

Q: And the CO ([2]; 75 min)?
A: -1%

Q: And the HR ([2]; 75 min)?
A: 9%

Q: And the MAP ([2]; 75 min)?
A: 0%

Q: And the PR ([2]; 75 min)?
A: -1 ms

Q: What about the QRS ([2]; 75 min) of the same compound?
A: -2 ms

Q: What about the QTcV ([2]; 75 min) of the same compound?
A: -3 ms

Q: And the SVR ([2]; 75 min)?
A: 1%

Q: And the “dp/dt@50” value ([2]; 75 min)?
A: -2%

Q: What about the CO ([2]; 90 min) of the same compound?
A: -9%

Q: And the HR ([2]; 90 min)?
A: 10%

Q: What about the MAP ([2]; 90 min) of the same compound?
A: -1%

Q: What about the PR ([2]; 90 min) of the same compound?
A: 0 ms

Q: And the QRS ([2]; 90 min)?
A: -2 ms

Q: What about the QTcV ([2]; 90 min) of the same compound?
A: -2 ms

Q: What about the SVR ([2]; 90 min) of the same compound?
A: 8%

Q: What about the “dp/dt@50” value ([2]; 90 min) of the same compound?
A: -6%

Q: And the CO ([2]; 105 min)?
A: -4%

Q: And the HR ([2]; 105 min)?
A: 9%

Q: And the MAP ([2]; 105 min)?
A: -2%

Q: What about the PR ([2]; 105 min) of the same compound?
A: 0 ms

Q: What about the QRS ([2]; 105 min) of the same compound?
A: -3 ms

Q: What about the QTcV ([2]; 105 min) of the same compound?
A: -1 ms

Q: What about the SVR ([2]; 105 min) of the same compound?
A: 2%

Q: What about the “dp/dt@50” value ([2]; 105 min) of the same compound?
A: -7%

Q: And the CO ([2]; 120 min)?
A: -5%

Q: What about the HR ([2]; 120 min) of the same compound?
A: 10%

Q: And the MAP ([2]; 120 min)?
A: -2%

Q: And the PR ([2]; 120 min)?
A: -1 ms

Q: And the QRS ([2]; 120 min)?
A: -2 ms

Q: And the QTcV ([2]; 120 min)?
A: 0 ms

Q: And the SVR ([2]; 120 min)?
A: 4%

Q: And the “dp/dt@50” value ([2]; 120 min)?
A: -7%

Q: What about the CO ([2]; 135 min) of the same compound?
A: -8%

Q: And the HR ([2]; 135 min)?
A: 11%

Q: And the MAP ([2]; 135 min)?
A: -3%

Q: And the PR ([2]; 135 min)?
A: -1 ms

Q: What about the QRS ([2]; 135 min) of the same compound?
A: -1 ms

Q: What about the QTcV ([2]; 135 min) of the same compound?
A: -2 ms

Q: And the SVR ([2]; 135 min)?
A: 7%

Q: What about the “dp/dt@50” value ([2]; 135 min) of the same compound?
A: -7%

Q: What about the CO ([2]; 150 min) of the same compound?
A: -7%

Q: What about the HR ([2]; 150 min) of the same compound?
A: 13%

Q: What about the MAP ([2]; 150 min) of the same compound?
A: -5%

Q: What about the PR ([2]; 150 min) of the same compound?
A: -2 ms

Q: And the QRS ([2]; 150 min)?
A: -1 ms

Q: And the QTcV ([2]; 150 min)?
A: -1 ms

Q: What about the SVR ([2]; 150 min) of the same compound?
A: 4%

Q: And the “dp/dt@50” value ([2]; 150 min)?
A: -7%

Q: What about the signs of cardiotoxicity ([2]; dogs) of the same compound?
A: no signs of cardiotoxicity

Q: Which results are given for `CCOc1ccc2cc(-c3nn(C4CCOCC4)c(N)c3C(N)=O)ccc2n1` [BKI-1841]?
A: difference in parasite excretion vs untreated control ([3]; 5 mg/kg QD days 6-10 postinfection): no significant difference; difference in parasite excretion vs untreated control ([3]; 15 mg/kg QD days 6-10 postinfection): no significant difference; difference in parasite excretion vs untreated control ([3]; 30 mg/kg QD days 6-10 postinfection): Significant differences; difference in parasite excretion vs untreated control ([3]; 60 mg/kg QD days 6-10 postinfection): Significant differences; minimum efficacious dose ([3]; IFN-γ KO mice, once daily (QD) for 5 days, cleared parasite excretion to background by day 13 postinfection): 30 mg/kg; IC50 [4]: > 10 µM; effects on MAP, HR, left ventricular contractility vs vehicle ([5]; anesthetized rats, 30-minute IV infusions of 3, 10, 30 mg/kg, significant >15%): No significant effects; HR ([5]; IV 3 mg/kg): 5%; MAP ([5]; IV 3 mg/kg): 1%; dP/dt@50 ([5]; IV 3 mg/kg): 3%; HR ([5]; IV 10 mg/kg): 3%; MAP ([5]; IV 10 mg/kg): 3%; dP/dt@50 ([5]; IV 10 mg/kg): 4%; HR ([5]; IV 30 mg/kg): 0%; MAP ([5]; IV 30 mg/kg): 2%; dP/dt@50 ([5]; IV 30 mg/kg): 11%; solubility (Aqueous solubility; aqueous medium at pH 2, pH 2, simulated gastric fluid, read-out: Solubility at pH 2): > 100 µM; solubility (Aqueous solubility; aqueous medium at pH 6.5, pH 6.5, aqueous buffer, read-out: Solubility at pH 6.5): > 100 µM
